Reference: PubChem BioAssay (NCI)
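Exposure lasted 48 hours, with cells grown in 96-well plates and compounds tested at five concentrations. GI50 = concentration required for 50% inhibition of growth. TGI denotes the concentration required for complete inhibition of growth.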

Legend:
Experiment in all cases: NCI-60 cell line screen, 48 h
[1] = system: NCI/ADR-RES ovarian
[2] = system: BT-549 breast
[3] = system: NCI-H23 lung
[4] = system: OVCAR-4 ovarian
[5] = system: HCT-15 colon
[6] = system: ACHN renal
[7] = system: TK-10 renal
[8] = system: A549 NSCLC
[9] = system: SF-268 CNS
[10] = system: MDA-MB-435
[11] = system: SR leukemia
[12] = system: MDA-MB-231 breast
[13] = system: K-562 leukemia
[14] = system: UACC-257 melanoma
[15] = system: NCI-H460 lung
[16] = system: MOLT-4 leukemia
[17] = system: CAKI-1 renal
[18] = system: SF-539 CNS
[19] = system: SNB-19 CNS
[20] = system: 786-0 renal
[21] = system: PC-3 prostate
[22] = system: SK-MEL-5 melanoma
[23] = system: OVCAR-8 ovarian
[24] = system: U251 CNS
[25] = system: SK-MEL-28 melanoma
[26] = system: HOP-62 NSCLC
[27] = system: SK-OV-3 ovarian
[28] = system: MALME-3M melanoma
[29] = system: COLO 205 colon
[30] = system: NCI-H522 lung
[31] = system: HCC-2998 colon
[32] = system: A498 renal
[33] = system: SK-MEL-2 melanoma
[34] = system: UO-31 renal
[35] = system: CCRF-CEM leukemia
[36] = system: LOX IMVI melanoma
[37] = system: SF-295 CNS
[38] = system: HT29 colon
[39] = system: RPMI-8226 leukemia
[40] = system: RXF 393 renal
[41] = system: UACC-62 melanoma
[42] = system: DU-145 prostate
[43] = system: OVCAR-3 ovarian
[44] = system: MCF7 breast
[45] = system: NCI-H226 lung
[46] = system: OVCAR-5 ovarian
[47] = system: HOP-92 NSCLC
[48] = system: SW-620 colon
[49] = system: KM12 colon
[50] = system: HL-60(TB) leukemia
[51] = system: T-47D breast
[52] = system: SN12C renal
[53] = system: M14 melanoma
[54] = system: IGROV1 ovarian
[55] = system: SNB-75 CNS
[56] = system: HS 578T breast
[57] = system: EKVX NSCLC
[58] = system: HCT-116 colon

CCC(=C(c1ccc(OCCN2CCCCCC2)cc1)c1ccc(OCCN2CCCCCC2)cc1)c1ccc(Cl)cc1
GI50 [1]: 1930 nM
TGI [1]: 6520 nM
GI50 [2]: 3380 nM
TGI [2]: 7520 nM
GI50 [3]: 3670 nM
TGI [3]: 8190 nM
GI50 [4]: 3900 nM
TGI [4]: 8710 nM
GI50 [5]: 631 nM
TGI [5]: 1450 nM
GI50 [6]: 1550 nM
TGI [6]: 5790 nM
GI50 [7]: 4370 nM
TGI [7]: 9000 nM
GI50 [8]: 1110 nM
TGI [8]: 4210 nM
GI50 [9]: 2330 nM
TGI [9]: 7470 nM
GI50 [10]: 644 nM
TGI [10]: 1360 nM
GI50 [11]: 585 nM
TGI [11]: 1340 nM
GI50 [12]: 2060 nM
TGI [12]: 7760 nM
GI50 [13]: 424 nM
TGI [13]: 1030 nM
GI50 [14]: 651 nM
TGI [14]: 1400 nM
GI50 [15]: 645 nM
TGI [15]: 1250 nM
GI50 [16]: 685 nM
TGI [16]: 1740 nM
GI50 [17]: 1000 nM
TGI [17]: 4490 nM
GI50 [18]: 643 nM
TGI [18]: 1370 nM
GI50 [19]: 833 nM
TGI [19]: 2340 nM
GI50 [20]: 578 nM
TGI [20]: 1180 nM
GI50 [21]: 1700 nM
TGI [21]: 6140 nM
GI50 [22]: 722 nM
TGI [22]: 1730 nM
GI50 [23]: 4280 nM
TGI [23]: 9410 nM
GI50 [24]: 597 nM
TGI [24]: 1150 nM
GI50 [25]: 623 nM
TGI [25]: 1200 nM
GI50 [26]: 2640 nM
TGI [26]: 7580 nM
GI50 [27]: 4230 nM
TGI [27]: 8590 nM
GI50 [28]: 576 nM
TGI [28]: 1270 nM
GI50 [29]: 586 nM
TGI [29]: 1210 nM
GI50 [30]: 3540 nM
TGI [30]: 8210 nM
GI50 [31]: 553 nM
TGI [31]: 1130 nM
GI50 [32]: 4880 nM
TGI [32]: 9720 nM
GI50 [33]: 3960 nM
TGI [33]: 8630 nM
GI50 [34]: 1720 nM
TGI [34]: 6670 nM
GI50 [35]: 657 nM
TGI [35]: 1790 nM
GI50 [36]: 502 nM
TGI [36]: 1010 nM
GI50 [37]: 644 nM
TGI [37]: 1310 nM
GI50 [38]: 652 nM
TGI [38]: 1410 nM
GI50 [39]: 749 nM
TGI [39]: 1640 nM
GI50 [40]: 754 nM
TGI [40]: 2250 nM
GI50 [41]: 664 nM
TGI [41]: 1680 nM
GI50 [42]: 1360 nM
TGI [42]: 5020 nM
GI50 [43]: 947 nM
TGI [43]: 3010 nM
GI50 [44]: 91.6 nM
TGI [44]: 785 nM
GI50 [45]: 4480 nM
TGI [45]: 9560 nM
GI50 [46]: 3730 nM
TGI [46]: 8250 nM
GI50 [47]: 1340 nM
TGI [47]: 6070 nM
GI50 [48]: 555 nM
TGI [48]: 1210 nM
GI50 [49]: 1060 nM
TGI [49]: 3600 nM
GI50 [50]: 683 nM
TGI [50]: 1600 nM
GI50 [51]: 649 nM
TGI [51]: 5310 nM
GI50 [52]: 3440 nM
TGI [52]: 8580 nM
GI50 [53]: 639 nM
TGI [53]: 1300 nM
GI50 [54]: 1350 nM
TGI [54]: 5210 nM
GI50 [55]: 1970 nM
TGI [55]: 6850 nM
GI50 [56]: 727 nM
TGI [56]: 1870 nM
GI50 [57]: 3520 nM
TGI [57]: 8010 nM
GI50 [58]: 582 nM
TGI [58]: 1360 nM
